# Experimental data from publication PMC9166766 (Experimental & Molecular Medicine, 2022).
# No end group written: not given here.
# Tests used:
# [1] = test system: Jurkat T cells (PMA and ionomycin-induced gene expression); assay: mRNA sequencing of activated Jurkat T cells; type: cell-based, human; details: P+I 8 h
# Description: We then extracted RNA from these cells. Construction of the cDNA library and next-generation sequencing was performed at LAS (Gimpo, Korea). We sequenced all samples on an Illumina NextSeq 500 system with 75 paired-end reads. For the RNA sequencing analysis, reads for each sample were aligned to the human genome (GRCh37/hg19 genome assembly) using STAR 2.4.0.1[25] with default settings. We used HOMER tools to quantify and normalize the defined genes in RefSeq transcripts. FPKM normalized genes were hierarchically clustered using Cluster3.0[26]. We visualized refined data with Java Treeview (http://jtreeview.sourceforge.net). We conducted gene ontology analysis of each cluster using the DAVID web tool (https://david.ncifcrf.gov). Finally, we visualized the expression levels of target genes using the Integrative Genomics Viewer (http://software.broadinstitute.org/software/igv). The raw data were submitted to the NCBI Gene Expression Omnibus under accession number GSE185561.
# Fig. 3 The CABIN1 peptide inhibits T-cell activation. a Heatmap of altered genes affected by FK506 treatment or CABIN1 peptide expression upon T-cell activation. b Gene Ontology analysis of cluster III. c mRNA expression levels of genes included in cluster III. d qRT-PCR data of genes in c. The experiment was independently repeated at least three times, and the data are presented as the mean ± standard deviation. Statistical differences were determined using two-tailed Student’s t-test. *p < 0.05, **p < 0.01, ***p < 0.001, NC negative control.
# NFATC2 dephosphorylation = assay: NFAT mobility shifting assay in Jurkat T cells; type: cell-based; details: HA-mCherry-tagged peptides, PMA and ionomycin 2 h, n = 7
# Description: Jurkat T cells expressing GST-tagged peptides were treated with PMA and ionomycin for activation. […] For dephosphorylation of NFATC2, Jurkat T cells were treated with PMA and ionomycin for 2 h. c Hyper- and hypophosphorylated NFATC2 of b was measured using ImageJ, and the hypo/hyper ratio was calculated (n = 7). d Snapshot images of the activated Jurkat T cells expressing the indicated peptides and tNFATC2 were obtained using confocal microscopy. The expression and localization of peptides and tNFATC2 are shown as mCherry (red) and EGFP (green), respectively. Nuclei were stained with Hoechst (blue). Scale bar, 50 μm e Nuclear-localized tNFATC2 was measured by calculating the colocalization ratio between Hoechst (M1) and EGFP (M2). […] Statistical differences were determined using a two-tailed Student’s t-test (a, c) or one-way ANOVA (e). ***p < 0.001, NC negative control.
# [2] = test system: Jurkat T cells (T-cell activation gene mRNA); assay: Real-time quantitative PCR of activated Jurkat T cells; type: cell-based; details: PMA and ionomycin
# Description: We collected Jurkat T cells with QIAzol Lysis Reagent (Qiagen) to extract total RNA. We reverse transcribed cDNAs from isolated RNA using AMV Reverse Transcriptase and random hexamers. We performed real-time quantitative PCR for each cDNA using TB Green® Premix Ex Taq™ (TaKaRa, Kusatsu, Japan) on a CFX Connect Real-time PCR Detection System (Bio-Rad, Hercules, CA, USA) and normalized the expression to that of 18 S rRNA or GAPDH.
# tNFATC2 nuclear import = assay: Nuclear localization of EGFP-tNFATC2 by confocal microscopy in Jurkat T cells; type: cell-based; details: 40 nM PMA and 1 μM ionomycin 4 h, FK506 0.5 μM, n = 10-12
# Description: We transfected Jurkat T cells with the pCAG-EGFP-tNFATC2-IRES-mCherry-peptide by electroporation. After two days, we pretreated these cells with 0.5 μM FK506 for 30 min. Then, we treated them with 40 nM PMA and 1 μM ionomycin under culture conditions for 4 h. Before imaging by a confocal laser scanning microscope (Nikon, Tokyo, Japan), we treated the cells with 10 μg/ml Hoechst 33342 (Invitrogen, Waltham, MA, USA) to stain nuclei. Colocalization analysis of mCherry and Hoechst was performed with ImageJ and its plugin JACoP to measure the Manders coefficient[23],[24].
# Scale bar, 50 μm e Nuclear-localized tNFATC2 was measured by calculating the colocalization ratio between Hoechst (M1) and EGFP (M2).
substance,measurement,setting,value
"CABIN1-L-1-2: 10 amino acids from proline 2146 to proline 2155 of full-length CABIN1; expressed GST-, GAL4 DBD- or HA-mCherry-tagged (PEITVTPPTP; also: expressed GST-, GAL4 DBD- or HA-mCherry-tagged, end not given here)",PHACTR2 expression,"[1]; NC 1.659, NC_P+I 9.467",2.791 FPKM
same,CABP1 expression,"[1]; NC 1.702, NC_P+I 5.834",1.689 FPKM
same,POU2AF1 expression,"[1]; NC 1.84, NC_P+I 36.298",2.971 FPKM
same,SPRY1 expression,"[1]; NC 2.079, NC_P+I 12.391",4.901 FPKM
same,GFOD1 expression,"[1]; NC 2.283, NC_P+I 12.861",6.312 FPKM
same,DSTYK expression,"[1]; NC 2.356, NC_P+I 7.198",3.595 FPKM
same,FMNL2 expression,"[1]; NC 2.395, NC_P+I 6.813",3.019 FPKM
same,ADORA2A expression,"[1]; NC 2.492, NC_P+I 11.633",1.475 FPKM
same,CD27 expression,"[1]; NC 2.525, NC_P+I 27.462",3.4 FPKM
same,TNFRSF4 expression,"[1]; NC 2.597, NC_P+I 31.683",11.916 FPKM
same,REL expression,"[1]; NC 2.654, NC_P+I 20.219",5.699 FPKM
same,JAK2 expression,"[1]; NC 2.788, NC_P+I 26.566",8.45 FPKM
same,LRRC8B expression,"[1]; NC 2.89, NC_P+I 28.699",4.298 FPKM
same,NPDC1 expression,"[1]; NC 3.008, NC_P+I 8.759",5.64 FPKM
same,CD27-AS1 expression,"[1]; NC 3.088, NC_P+I 14.958",4.613 FPKM
same,CST7 expression,"[1]; NC 3.315, NC_P+I 14.15",3.175 FPKM
same,TAGAP expression,"[1]; NC 3.351, NC_P+I 128.498",8.731 FPKM
same,CD55 expression,"[1]; NC 3.587, NC_P+I 39.451",12.082 FPKM
same,GTDC1 expression,"[1]; NC 3.595, NC_P+I 10.378",5.144 FPKM
same,KCNK5 expression,"[1]; NC 3.84, NC_P+I 14.865",4.904 FPKM
same,MYO1D expression,"[1]; NC 4.114, NC_P+I 11.118",5.995 FPKM
same,RDH10 expression,"[1]; NC 4.125, NC_P+I 19.889",5.524 FPKM
same,COL27A1 expression,"[1]; NC 4.149, NC_P+I 17.216",5.729 FPKM
same,PLK3 expression,"[1]; NC 4.432, NC_P+I 14.807",7.036 FPKM
same,NFATC1 expression,"[1]; NC 4.511, NC_P+I 15.287",3.916 FPKM
same,ASAP1 expression,"[1]; NC 4.678, NC_P+I 18.37",9.052 FPKM
same,GRK5 expression,"[1]; NC 5.451, NC_P+I 21.464",8.975 FPKM
same,CCDC64 expression,"[1]; NC 5.477, NC_P+I 33.545",11.039 FPKM
same,ATG14 expression,"[1]; NC 5.727, NC_P+I 30.239",11.252 FPKM
same,PELI1 expression,"[1]; NC 5.755, NC_P+I 16.085",8.465 FPKM
same,ARHGEF3 expression,"[1]; NC 6.146, NC_P+I 31.337",8.674 FPKM
same,PKIA expression,"[1]; NC 6.444, NC_P+I 49.019",18.138 FPKM
same,LTBP4 expression,"[1]; NC 7.304, NC_P+I 33.466",9.568 FPKM
same,LAMP3 expression,"[1]; NC 8.064, NC_P+I 31.61",9.828 FPKM
same,LAX1 expression,"[1]; NC 8.344, NC_P+I 24",7.578 FPKM
same,PTPN22 expression,"[1]; NC 8.928, NC_P+I 45.38",5.119 FPKM
same,VAMP1 expression,"[1]; NC 9.566, NC_P+I 50.97",14.752 FPKM
same,NINJ1 expression,"[1]; NC 10.319, NC_P+I 76.622",54.452 FPKM
same,KCNK1 expression,"[1]; NC 10.828, NC_P+I 36.893",13.139 FPKM
same,CD97 expression,"[1]; NC 10.97, NC_P+I 49.481",21.496 FPKM
same,FBXO34 expression,"[1]; NC 11.735, NC_P+I 48.015",18.386 FPKM
same,TBC1D20 expression,"[1]; NC 11.844, NC_P+I 35.808",18.427 FPKM
same,MIR6775 expression,"[1]; NC 12.409, NC_P+I 50.527",21.57 FPKM
same,AGK expression,"[1]; NC 14.395, NC_P+I 39.056",14.306 FPKM
same,FYN expression,"[1]; NC 14.671, NC_P+I 58.084",15.512 FPKM
same,MIR6821 expression,"[1]; NC 17.553, NC_P+I 62.894",25.116 FPKM
same,NDFIP1 expression,"[1]; NC 19.638, NC_P+I 54.615",24.432 FPKM
same,TBC1D4 expression,"[1]; NC 20.739, NC_P+I 73.749",13.191 FPKM
same,MAP2K3 expression,"[1]; NC 21.676, NC_P+I 144.057",43.237 FPKM
same,PTPN6 expression,"[1]; NC 22.163, NC_P+I 77.092",20.806 FPKM
same,FXYD5 expression,"[1]; NC 25.643, NC_P+I 101.352",42.856 FPKM
same,BCL2L1 expression,"[1]; NC 31.375, NC_P+I 113.956",41.852 FPKM
same,ATP6V1B2 expression,"[1]; NC 33.172, NC_P+I 129.395",60.661 FPKM
same,PIM3 expression,"[1]; NC 37.434, NC_P+I 180.382",72.895 FPKM
same,PPIF expression,"[1]; NC 58.328, NC_P+I 188.301",106.533 FPKM
same,NFATC2 dephosphorylation / band shift,NFATC2 dephosphorylation,significantly inhibited the NFATC2 band shift
same,NINJ1 and ZP4 expression upon T-cell activation,"[2]; Supplementary Fig. 5a, b",unaffected
same,RNA levels of T-cell activation genes (qRT-PCR) vs VIVIT peptide,[2]; at least three repeats,reduced the RNA levels of these genes more efficiently than the VIVIT peptide
same,proportion of nuclear-localized tNFATC2,tNFATC2 nuclear import,slightly higher
